Like-named read-outs stand apart in the source and are kept apart here.
Columns and labels:
[1] = Quantum yield measurement (Quantaurus-QY spectrometer); format: physicochemical; details: for increase in quantum yield / brightness relative to parent N,N-dialkyl dye: azetidine-substituted vs parent fluorophore
Protocol: All reported quantum yield values were measured in under identical conditions using a Quantaurus-QY spectrometer (C11374, Hamamatsu). Measurements were carried out using dilute samples (A<0.1) and self-absorption corrections were performed using the instrument software. Reported values are averages (n=3).

[2] = Absorption and fluorescence spectroscopy of dyes; format: physicochemical
Protocol: Phosphate buffered saline (PBS) was at pH 7.4 unless otherwise noted.
Spectroscopy was performed using 1-cm path length, 3.5-mL quartz cuvettes from Starna Cells or 1-cm path length, 1.0-mL quartz microcuvettes from Hellma. All measurements were taken at ambient temperature (22±2° C.) in 10 mM HEPES, pH 7.3 buffer unless otherwise noted. Absorption spectra were recorded on a Cary Model 100 spectrometer (Varian); reported values for extinction coefficients (ε) are averages (n=3). Fluorescence spectra were recorded on a Cary Eclipse fluorometer (Varian). Normalized spectra are shown for clarity.

ϕ ([1]; Table 1, 10 mM HEPES pH 7.3)	ε ([2]; Table 1, 10 mM HEPES pH 7.3)	λem ([2]; Table 1, 10 mM HEPES pH 7.3)	λmax ([2]; Table 1, 10 mM HEPES pH 7.3)	Compound	ϕ ([1]; Table 3, 10 mM HEPES pH 7.3)	ϕ (quantum yield) ([1]; aqueous buffer)	ε ([2]; Table 3, 10 mM HEPES pH 7.3)	λem ([2]; Table 3, 10 mM HEPES pH 7.3)	λmax ([2]; Table 3, 10 mM HEPES pH 7.3)	ε (extinction coefficient) ([2]; aqueous buffer)	increase in quantum yield / brightness relative to parent N,N-dialkyl dye [1]	further results
				CCN(CC)c1ccc2nc3ccc(=[N+](CC)CC)cc-3oc2c1.[O-][Cl+3]([O-])([O-])[O-] [Oxazine 1, reference compound]	0.07	0.07	111,000 M^−1 cm^−1	669 nm	655 nm	111000 M⁻¹ cm⁻¹		
				O=C(O)c1cc2ccc(N3CCC3)cc2oc1=O [Example 51, 7-(Azetidin-1-yl)-2-oxo-2H-chromene-3-carboxylic acid]	0.84	0.84	24,000 M^−1 cm^−1	470 nm	387 nm	24000 M⁻¹ cm⁻¹	~30 fold	
0.89	108,000 M^−1 cm^−1	557 nm	533 nm	N#CC1CN(c2ccc3c(-c4ccccc4C(=O)[O-])c4ccc(=[N+]5CC(C#N)C5)cc-4oc3c2)C1 (centres unmarked) [Example 12, 2-(3,6-Bis(3-cyanoazetidin-1-yl)xanthylium-9-yl)benzoate]								
0.87	113,000 M^−1 cm^−1	560 nm	536 nm	O=C([O-])c1ccccc1-c1c2ccc(=[N+]3CC(F)C3)cc-2oc2cc(N3CC(F)C3)ccc12 (centres unmarked) [Example 10, 2-(3,6-Bis(3-fluoroazetidin-1-yl)xanthylium-9-yl)benzoate]								
				Cc1cc(=O)oc2cc(N3CCC3)ccc12 [Example 49, 7-(Azetidin-1-yl)-4-methyl-2H-chromen-2-one]	0.96	0.96	15,000 M^−1 cm^−1	467 nm	354 nm	15000 M⁻¹ cm⁻¹	five-fold	
0.57	111,000 M^−1 cm^−1	565 nm	542 nm	CN(C)C1CN(c2ccc3c(-c4ccccc4C(=O)[O-])c4ccc(N5CC(N(C)C)C5)cc4[o+]c3c2)C1 [Example 13, 2-(3,6-Bis(3-(dimethylamino)azetidin-1-yl)xanthylium-9-yl)benzoate]								
				O=C(O)c1ccccc1-c1c2ccc(=O)cc-2oc2cc(N3CCC3)ccc12 [Example 59, 2-(6-(Azetidin-1-yl)-3-oxo-3H-xanthen-9-yl)benzoic acid]	0.85	0.85	59,000 M^−1 cm^−1	546 nm	519 nm		4 fold	
				Cc1cc(=O)oc2cc(N(C)C)ccc12 [Coumarin 461, reference compound]			18,000 M^−1 cm^−1	470 nm	372 nm	18000 M⁻¹ cm⁻¹		ϕ (quantum yield) [1]: 0.19; ϕ ([1]; pH 7.3): 0.19

Compound	ϕ ([1]; Table 1, 10 mM HEPES pH 7.3)	ε ([2]; Table 1, 10 mM HEPES pH 7.3)	λem ([2]; Table 1, 10 mM HEPES pH 7.3)	λmax ([2]; Table 1, 10 mM HEPES pH 7.3)	ϕ ([1]; Table 3, 10 mM HEPES pH 7.3)	ϕ (quantum yield) ([1]; aqueous buffer)	ε ([2]; Table 3, 10 mM HEPES pH 7.3)	λem ([2]; Table 3, 10 mM HEPES pH 7.3)	λmax ([2]; Table 3, 10 mM HEPES pH 7.3)	ε (extinction coefficient) ([2]; aqueous buffer)	increase in quantum yield / brightness relative to parent N,N-dialkyl dye [1]	further results
C[Si]1(C)C2=CC(=[N+]3CC(F)C3)C=CC2=C(c2ccccc2C(=O)[O-])c2ccc(N3CC(F)C3)cc21 (centres unmarked) [Example 31, 2-(3,7-Bis(3-fluoroazetidin-1-yl)-5,5-dimethyldibenzo[b,e]silin-10-ylium-10(5H)-yl)benzoate]	0.56		652 nm	635 nm								ε ([2]; Table 1, trifluoroethanol containing 0.1% (v/v) trifluoroacetic acid): 167,000^a M^−1 cm^−1
C[Si]1(C)C2=CC(=[N+]3CCC3)C=CC2=C(c2ccccc2C(=O)[O-])c2ccc(N3CCC3)cc21 [Example 30, 2-(3,7-Di(azetidin-1-yl)-5,5-dimethyldibenzo[b,e]silin-10-ylium-10(5H)-yl)benzoate]	0.54		664 nm	646 nm	0.54	0.54		664 nm	646 nm			ε ([2]; Table 1, ethanol containing 0.1% (v/v) trifluoroacetic acid): 152,000^b M^−1 cm^−1; ε ([2]; Table 3, ethanol containing 0.1% v/v trifluoroacetic acid): 152,000^a M^−1 cm^−1; ε (extinction coefficient) ([2]; acidic ethanol): 152000 M⁻¹ cm⁻¹; λmax ([2]; text b257, unit not given): 646
